Paper PMC8071358, “Targeting of the Essential acpP, ftsZ, and rne Genes in Carbapenem-Resistant Acinetobacter baumannii by Antisense PNA Precision Antibacterials” (Biomedicines, 2021)
Values after ≈ are worked out from the molar mass of the structure shown. {(KFF)3K-eg1} = H-(KFF)3K peptide (K lysine, F phenylalanine) with eg1 linker (8-amino-3,6-dioxaoctanoyl), on the PNA N terminus (5' end); {(kff)3k-eg1} = D-form (kff)3k peptide with eg1 linker (8-amino-3,6-dioxaoctanoyl), on the PNA N terminus; {(R-Ahx-R)4-Ahx} = H-(R-Ahx-R)4-Ahx peptide (R arginine, Ahx 6-aminohexanoyl), on the PNA N terminus; {NH2} = C-terminal amide

Columns and labels:
Type in all cases: cell-based, Acinetobacter baumannii
CRAB strain AC7 = experiment: Antibiotic MIC (CLSI microdilution or gradient strips); settings: blood isolate, CLSI
Method: (§1) All minimum inhibitory concentration (MIC) determinations for antibiotics were performed by the standard microdilution method in 96-well microplate (Thermo-Scientific, Roskilde, Denmark) or by gradient test strips (Liofilchem, Italy) according to the Clinical and Laboratory Standards Institute guidelines.

CRAB strain AC6 = experiment: as above; settings: blood isolate, CLSI
Method: as §1

[1] = test system: A. baumannii ATCC 19606 type strain; experiment: as above; settings: for MIC: Acinetobacter baumannii, ATCC19606
Method: as §1, with “guidelines. Escherichia coli ATCC 25922 was used as control.” for “guidelines.”

CRAB strain AC5 = experiment: as above
Method: as §1, with “guidelines. Escherichia coli ATCC 25922 was used as control.” for “guidelines.”

CRAB strain AC2 [2] = experiment: as above; settings: wound isolate, CLSI
Method: as §1, with “guidelines. Escherichia coli ATCC 25922 was used as control.” for “guidelines.”

CRAB strain AC46 [3] = experiment: as above; settings: sputum isolate, CLSI; for MIC: Acinetobacter baumannii, AC46, read-out: MIC, AC46
Method: as §1, with “guidelines. Escherichia coli ATCC 25922 was used as control.” for “guidelines.”

CRAB strain AC8 = experiment: as above; settings: sputum isolate, CLSI; for MIC: Acinetobacter baumannii, AC8, read-out: MIC, AC8
Method: as §1, with “guidelines. Escherichia coli ATCC 25922 was used as control.” for “guidelines.”

CRAB strain AC1 = experiment: as above
Method: as §1, with “guidelines. Escherichia coli ATCC 25922 was used as control.” for “guidelines.”

CRAB strain SSI1104 = experiment: as above
Method: as §1, with “guidelines. Escherichia coli ATCC 25922 was used as control.” for “guidelines.”

CRAB strain AC44 [4] = experiment: as above; settings: for MIC: Acinetobacter baumannii, AC44, urine isolate
Method: as §1, with “guidelines. Escherichia coli ATCC 25922 was used as control.” for “guidelines.”

CRAB strain AC9 = experiment: as above; settings: CSF isolate, CLSI; for MIC: Acinetobacter baumannii, AC9, read-out: MIC, AC9
Method: as §1, with “guidelines. Escherichia coli ATCC 25922 was used as control.” for “guidelines.”

CRAB strain AC4 = experiment: as above; settings: trachea isolate, CLSI
Method: as §1, with “guidelines. Escherichia coli ATCC 25922 was used as control.” for “guidelines.”

CRAB strain AC3 = experiment: as above
Method: as §1, with “guidelines. Escherichia coli ATCC 25922 was used as control.” for “guidelines.”

CRAB strain AC44 [5] = experiment: BPP-PNA MIC, broth microdilution
Method: (§2) MIC values were determined by broth microdilution according to standard protocols with a few modifications. An overnight bacterial cell culture was diluted to approximately 5 × 10^5 CFU/mL in non-cation-adjusted Muller Hinton Broth (MHB). Then, 180 µL bacterial solutions were dispensed into a low-bind 96-well plate (Thermo-Scientific, Roskilde, Denmark) along with 20 µL of BPP-PNA compound (BPP-PNA was serially diluted 2-fold from 16 to 0.5 µM in a 96-well plate). The plate was incubated in a Tecan Genios plate reader (GMI, Minnesota, Ramsey, USA) at 37 °C for 18 h with linear shaking, OD was measured every 20 min at 595 nm. […] The minimum bactericidal concentration (MBC) values were determined by plating 10 µL samples from the wells with no visible turbidity onto Mueller–Hinton agar plates. The MBC is determined the lowest concentration of BPP-PNA that reduces the viability of the initial bacterial inoculum by ≥99.9% (3-log reduction in CFU/mL). A minimum of two independent experiments (biological replicates) of the assay were conducted, and two technical replicates were used in each experiment for each bacterium, compound, and concentration.

A. baumannii ATCC 19606 = experiment: BPP-PNA MIC, broth microdilution; settings: 37 °C, 18 h
Method: as §2

CRAB strain AC46 [6] = experiment: BPP-PNA MIC, broth microdilution
Method: as §2, with “An overnight bacterial cell culture was diluted to approximately 5 × 10^5 CFU/mL in non-cation-adjusted Muller Hinton Broth (MHB).” left out

CRAB strain AC2 [7] = experiment: BPP-PNA MIC, broth microdilution; settings: Sigma MHB medium without cation; 37 °C, 18 h
Method: as §2

A. baumannii SSI1104 = experiment: BPP-PNA MIC, broth microdilution; settings: Sigma MHB medium without cation; 37 °C, 18 h
Method: as §2, with “An overnight bacterial cell culture was diluted to approximately 5 × 10^5 CFU/mL in non-cation-adjusted Muller Hinton Broth (MHB).” left out

[8] = Table 4 (anti-rne), brand of medium not given, non-cation-adjusted MHB by method
[9] = Sigma MHB medium without cation, 37 °C, 18 h
[10] = Sigma MHB medium without cation, ~5 × 10^5 CFU/mL, OD595 < 0.1

Molecule: Colistin
- MIC, AC7 (CRAB strain AC7): 1 µg/mL
- MIC, AC6 (CRAB strain AC6): 1 µg/mL
- MIC, ATCC 19606 [1]: 1 µg/mL
- MIC, AC5 (CRAB strain AC5; urine isolate): 1 µg/mL
- MIC, AC2 (CRAB strain AC2 [2]): 1 µg/mL
- MIC, AC46 (CRAB strain AC46 [3]): 1 µg/mL
- MIC, AC8 (CRAB strain AC8): 1 µg/mL
- MIC, AC1 (CRAB strain AC1; wound isolate): 1 µg/mL
- MIC, SSI 1104 (CRAB strain SSI1104): 1 µg/mL
- MIC, AC44 (CRAB strain AC44 [4]; urine isolate): 0.5 µg/mL
- MIC, AC9 (CRAB strain AC9): 1 µg/mL
- MIC, AC4 (CRAB strain AC4): 1 µg/mL
- MIC, AC3 (CRAB strain AC3; sputum isolate): 1 µg/mL

Molecule: H-(R-Ahx-R)4-Ahx-GAGTCCAGGAC-NH2 (all peptide nucleic acid (PNA), 5' {(R-Ahx-R)4-Ahx}, 3' {NH2}) [PNA 5616, anti-ftsZ (R-Ahx-R)4-Ahx-PNA, mismatch]
- MIC, AC44 (CRAB strain AC44 [5]; MHB without cation (Oxoid), 37 °C, 18 h): >16 µM
- MIC, ATCC 19606 (A. baumannii ATCC 19606; MHB without cation (Oxoid)): >16 µM

Molecule: H-(KFF)3K-eg1-ACGTTTCATGG-NH2 (all peptide nucleic acid (PNA), 5' {(KFF)3K-eg1}, 3' {NH2}) [PNA 5637, anti-rne peptide-PNA conjugate, match, −2 to +9]
- MIC, AC44 (CRAB strain AC44 [5]; [8]): 1 µM
- MIC, ATCC 19606 (A. baumannii ATCC 19606; [8]): 1 µM
- MIC, AC46 (CRAB strain AC46 [6]; [8]): 1 µM

Molecule: H-(kff)3k-eg1-TGATTTGCCAC-NH2 (all peptide nucleic acid (PNA), 5' {(kff)3k-eg1}, 3' {NH2}) [PNA 5823, anti-acpP PNA with D-form peptide, match]
- MIC, AC2 (CRAB strain AC2 [7]): 4 µM
- MIC, AC44 (CRAB strain AC44 [5]; [9]): 4 µM
- MIC, ATCC 19606 (A. baumannii ATCC 19606; [10]): 4 µM
- MIC, SSI 1104 (A. baumannii SSI1104): 4 µM
- MIC, AC46 (CRAB strain AC46 [6]; [9]): 4 µM

Molecule: CN(C)[C@@H]1C(O)=C(C(N)=O)C(=O)[C@@]2(O)C(O)=C3C(=O)c4c(O)cccc4[C@@](C)(O)[C@H]3C[C@@H]12 [Tetracycline]
- MIC [1]: 1 µg/mL (≈ 2.25 µM)
- MIC (CRAB strain AC46 [3]): 128 µg/mL (≈ 288 µM)
- MIC (CRAB strain AC8): 32 µg/mL (≈ 72 µM)
- MIC (CRAB strain AC44 [4]): 256 µg/mL (≈ 576 µM)
- MIC (CRAB strain AC9): 32 µg/mL (≈ 72 µM)

Molecule: C[C@@H](O)[C@H]1C(=O)N2C(C(=O)O)=C(SCCN=CN)C[C@H]12 [Imipenem]
- MIC (CRAB strain AC7; Acinetobacter baumannii, AC7, read-out: MIC, AC7): 16 µg/mL (≈ 53.4 µM)
- MIC (CRAB strain AC6; Acinetobacter baumannii, AC6, read-out: MIC, AC6): 16 µg/mL (≈ 53.4 µM)
- MIC [1]: 1 µg/mL (≈ 3.34 µM)
- MIC (CRAB strain AC5; Acinetobacter baumannii, AC5, urine isolate): 16 µg/mL (≈ 53.4 µM)
- MIC (CRAB strain AC2 [2]; Acinetobacter baumannii, AC2, read-out: MIC, AC2): 16 µg/mL (≈ 53.4 µM)
- MIC (CRAB strain AC46 [3]): 16 µg/mL (≈ 53.4 µM)
- MIC (CRAB strain AC8): 16 µg/mL (≈ 53.4 µM)
- MIC (CRAB strain AC1; Acinetobacter baumannii, AC1, wound isolate): 8 µg/mL (≈ 26.7 µM)
- MIC (CRAB strain AC44 [4]): 16 µg/mL (≈ 53.4 µM)
- MIC (CRAB strain AC9): 16 µg/mL (≈ 53.4 µM)
- MIC (CRAB strain AC4; Acinetobacter baumannii, AC4, read-out: MIC, AC4): 8 µg/mL (≈ 26.7 µM)
- MIC (CRAB strain AC3; Acinetobacter baumannii, AC3, sputum isolate): 32 µg/mL (≈ 107 µM)

Molecule: H-(KFF)3K-eg1-ATACCGCTTAC-NH2 (all peptide nucleic acid (PNA), 5' {(KFF)3K-eg1}, 3' {NH2}) [PNA 5653, anti-acpP mismatch control of 5652]
- MIC, AC2 (CRAB strain AC2 [7]): 4 µM
- MIC, AC44 (CRAB strain AC44 [5]; [9]): 4 µM
- MIC, ATCC 19606 (A. baumannii ATCC 19606; [10]): 4 µM
- MIC, SSI 1104 (A. baumannii SSI1104): 4 µM
- MIC, AC46 (CRAB strain AC46 [6]; [9]): 4 µM

Molecule: H-(kff)3k -eg1-TGACTTGTCAC-NH2 (all peptide nucleic acid (PNA), 5' {(kff)3k-eg1}, 3' {NH2}) [PNA 5824, anti-acpP PNA with D-form peptide, mismatch]
- MIC, AC2 (CRAB strain AC2 [7]): 8 µM
- MIC, AC44 (CRAB strain AC44 [5]; [9]): 4 µM
- MIC, ATCC 19606 (A. baumannii ATCC 19606; [10]): 8 µM
- MIC, SSI 1104 (A. baumannii SSI1104): 8 µM
- MIC, AC46 (CRAB strain AC46 [6]; [9]): 4 µM
